Patent US9765091B2, “Tetrahydropyrazolo [3,4-b] azepine derivatives and their use as allosteric modulators of metabotropic glutamate receptors” (Addex Pharma S.A., priority 2010, dated 2017)

These compounds were tested against T1, human mGluR4 (Homo sapiens, UniProt Q14833) (assay: Fluorescent cell based Ca2+ mobilization assay (FLIPR) on HEK-293 cells expressing human mGluR4). Conditions: positive allosteric modulation, HEK-293 cells expressing hmGluR4, stimulated by EC25 glutamate; mean of at least three independent experiments in duplicate; read-out: Ca^2+ Flux* (mean EC50).
T1 construct: expressed in transfected cells
T1 sequence (Q14833 33-912): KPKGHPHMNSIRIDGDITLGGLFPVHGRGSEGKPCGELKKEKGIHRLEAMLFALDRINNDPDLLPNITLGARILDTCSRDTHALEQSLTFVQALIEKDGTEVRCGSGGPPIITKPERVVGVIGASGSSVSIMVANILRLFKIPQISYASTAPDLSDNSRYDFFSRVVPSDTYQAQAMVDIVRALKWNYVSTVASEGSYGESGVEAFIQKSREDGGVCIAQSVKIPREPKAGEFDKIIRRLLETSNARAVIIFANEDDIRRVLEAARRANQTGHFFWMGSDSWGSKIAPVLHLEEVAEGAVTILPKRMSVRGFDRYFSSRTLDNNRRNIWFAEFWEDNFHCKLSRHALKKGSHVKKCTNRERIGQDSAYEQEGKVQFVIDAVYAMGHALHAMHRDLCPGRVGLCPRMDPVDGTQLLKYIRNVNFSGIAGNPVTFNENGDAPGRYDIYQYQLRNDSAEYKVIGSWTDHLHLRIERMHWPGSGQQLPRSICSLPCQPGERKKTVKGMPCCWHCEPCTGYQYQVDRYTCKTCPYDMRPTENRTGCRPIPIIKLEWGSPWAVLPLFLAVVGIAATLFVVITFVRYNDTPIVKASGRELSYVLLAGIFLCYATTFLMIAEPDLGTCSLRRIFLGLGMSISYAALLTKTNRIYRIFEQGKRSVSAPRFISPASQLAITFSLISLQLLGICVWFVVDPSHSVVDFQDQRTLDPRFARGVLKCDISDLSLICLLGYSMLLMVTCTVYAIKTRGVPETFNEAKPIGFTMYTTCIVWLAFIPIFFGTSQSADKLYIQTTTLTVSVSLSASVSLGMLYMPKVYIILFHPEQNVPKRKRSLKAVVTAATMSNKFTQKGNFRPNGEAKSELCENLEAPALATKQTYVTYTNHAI
Source text: mGluR4 Assay on HEK-Expressing Human mGluR4
The compounds of the present invention are positive allosteric modulators of mGluR4 receptor. Their activity was examined on recombinant human mGluR4a receptors by detecting changes in intracellular Ca^2+ concentration, using the fluorescent Ca^2+-sensitive dye Fluo4-(AM) and a Fluorometric Imaging Plate Reader (FLIPR, Molecular Devices, Sunnyvale, Calif.).
The cDNA encoding the human metabotropic glutamate receptor (hmGluR4), (accession number NM_000841.1, NCBI Nucleotide database browser), was subcloned into an expression vector containing also the hygromycin resistance gene. In parallel, the cDNA encoding a G protein allowing redirection of the activation signal to intracellular calcium flux was subcloned into a different expression vector containing also the puromycin resistance gene. Transfection of both these vectors into HEK293 cells with PolyFect reagent (Qiagen) according to supplier's protocol, and hygromycin and puromycin treatment allowed selection of antibiotic resistant cells which had integrated stably one or more copies of the plasmids. Positive cellular clones expressing hmGluR4 were identified in a functional assay measuring changes in calcium fluxes in response to glutamate or selective known mGluR4 orthosteric agonists and antagonists. HEK-293 cells expressing hmGluR4 were maintained in media containing DMEM, dialyzed Fetal Calf Serum (10%), Glutamax™ (2 mM), Penicillin (100 units/mL), Streptomycin (100 μg/mL), Geneticin (100 μg/mL) and Hygromycin-B (40 μg/mL) and puromycin (1 μg/mL) at 37° C./5% CO2.
Human mGluR4 HEK-293 cells were plated out 24 hours prior to FLIPR^384 assay in black-walled, clear-bottomed, poly-L-ornithine-coated 384-well plates at a density of 25,000 cells/well in a glutamine/glutamate free DMEM medium containing foetal bovine serum (10%), penicillin (100 units/mL) and streptomycin (100 μg/mL) at 37° C./5% CO2.
On the day of the assay, the medium was aspirated and the cells were loaded with a 3 μM solution of Fluo4-AM (LuBioScience, Lucerne, Switzerland) in 0.03% pluronic acid. After 1 hour at 37° C./5% CO2, the non incorporated dye was removed by washing cell plate with the assay buffer and the cells were left in the dark at room temperature for […] before testing. All assays were performed in a pH 7.4 buffered-solution containing 20 mM HEPES, 143 mM NaCl, 6 mM KCl, 1 mM MgSO4, 1 mM CaCl2, 0.125 mM sulfapyrazone and 0.1% glucose.
After 10 s of basal fluorescence recording, various concentrations of the compounds of the invention were added to the cells. Changes in fluorescence levels were first monitored for 180 s in order to detect any agonist activity of the compounds. Then the cells were stimulated by an EC25 glutamate concentration for an additional 110 s in order to measure enhancing activities of the compounds of the invention. EC25 glutamate concentration is the concentration giving 25% of the maximal glutamate response.
The concentration-response curves of representative compounds of the present invention were generated using the Prism GraphPad software (Graph Pad Inc, San Diego, USA). The curves were fitted to a four-parameter logistic equation: (Y=Bottom+(Top−Bottom)/(1+10^((Log EC50−X)*Hill Slope) allowing the determination of EC50 values.
The Table 4 below represents the mean EC50 obtained from at least three independent experiments of selected molecules performed in duplicate.

| Compound | EC50 |
| --- | --- |
| CC(C)OCCN1CCc2sc(Nc3ncc(F)cn3)nc2-c2c[nH]nc21 [Compound 1-43, N-(5-Fluoropyrimidin-2-yl)-6-(2-isopropoxyethyl)-4,5,6,8-tetrahydropyrazolo[3,4-b]thiazolo[4,5-d]azepin-2-amine] | < 0.1 µM |
| COCCN1CCc2sc(Nc3ncc(O)cn3)nc2-c2cn[nH]c21 [Compound 1-50, 2-(6-(2-Methoxyethyl)-4,5,6,7-tetrahydropyrazolo[3,4-b]thiazolo[4,5-d]azepin-2-ylamino)pyrimidin-5-ol] | < 0.1 µM |
| Fc1cnc(Nc2nc3c(s2)CCN(C[C@H]2CCCO2)c2[nH]ncc2-3)nc1 [Compound 1-51] | < 0.1 µM |
| Cn1ncc(CN2CCc3sc(Nc4ncc(F)cn4)nc3-c3cn[nH]c32)n1 [Compound 1-52, N-(5-Fluoropyrimidin-2-yl)-6-((2-methyl-2H-1,2,3-triazol-4-yl)methyl)-4,5,6,7-tetrahydropyrazolo[3,4-b]thiazolo[4,5-d]azepin-2-amine] | < 0.1 µM |
| COCCN1CCc2sc(Nc3cccc(CO)n3)nc2-c2c[nH]nc21 [Compound 1-53, (6-(6-(2-Methoxyethyl)-4,5,6,8-tetrahydropyrazolo[3,4-b]thiazolo[4,5-d]azepin-2-ylamino)pyridin-2-yl)methanol] | 1 to 10 µM |
| COCCN1CCc2sc(Nc3ccnc(C)n3)nc2-c2c[nH]nc21 [Compound 1-54, 6-(2-Methoxyethyl)-N-(2-methylpyrimidin-4-yl)-4,5,6,8-tetrahydropyrazolo[3,4-b]thiazolo[4,5-d]azepin-2-amine] | 1 to 10 µM |
| COCCN1CCc2sc(Nc3ccncn3)nc2-c2c[nH]nc21 [Compound 1-55, 6-(2-Methoxyethyl)-N-(pyrimidin-4-yl)-4,5,6,8-tetrahydropyrazolo[3,4-b]thiazolo[4,5-d]azepin-2-amine] | 1 to 10 µM |
| Fc1cnc(Nc2nc3c(s2)CCN(Cc2ccn[nH]2)c2n[nH]cc2-3)nc1 [Compound 1-56, 6-((1H-Pyrazol-5-yl)methyl)-N-(5-fluoropyrimidin-2-yl)-4,5,6,8-tetrahydropyrazolo[3,4-b]thiazolo[4,5-d]azepin-2-amine] | 0.1 to 1 µM |

Next, values leading:

| EC50 | Compound |
| --- | --- |
| < 0.1 µM | Fc1cnc(Nc2nc3c(s2)CCN(Cc2ccc(Cl)cn2)c2n[nH]cc2-3)nc1 [Compound 1-41, 6-((5-Chloropyridin-2-yl)methyl)-N-(5-fluoropyrimidin-2-yl)-4,5,6,8-tetrahydropyrazolo[3,4-b]thiazolo[4,5-d]azepin-2-amine] |
| < 0.1 µM | CC(C)c1cc(CN2CCc3nc(Nc4ncc(F)cn4)sc3-c3c[nH]nc32)no1 [Compound 1-42] |
| < 0.1 µM | Fc1cnc(Nc2nc3c(s2)CCN(CC2CCC2)c2n[nH]cc2-3)nc1 [Compound 1-44, 6-(Cyclobutylmethyl)-N-(5-fluoropyrimidin-2-yl)-4,5,6,8-tetrahydropyrazolo[3,4-b]thiazolo[4,5-d]azepin-2-amine] |
| < 0.1 µM | Fc1cnc(Nc2nc3c(s2)CCN(Cc2ccccc2)c2[nH]ncc2-3)nc1 [Compound 1-45, 6-Benzyl-N-(5-fluoropyrimidin-2-yl)-4,5,6,7-tetrahydropyrazolo[3,4-b]thiazolo[4,5-d]azepin-2-amine] |
| < 0.1 µM | Cc1cc(CN2CCc3sc(Nc4nccc(C)n4)nc3-c3c[nH]nc32)on1 [Compound 1-46, 6-((3-Methylisoxazol-5-yl)methyl)-N-(4-methylpyrimidin-2-yl)-4,5,6,8-tetrahydropyrazolo[3,4-b]thiazolo[4,5-d]azepin-2-amine] |
| < 0.1 µM | Fc1cnc(Nc2nc3c(s2)CCN(CC2CCCO2)c2[nH]ncc2-3)nc1 (stereo not drawn) [Compound 1-48, N-(5-Fluoropyrimidin-2-yl)-6-((tetrahydrofuran-2-yl)methyl)-4,5,6,7-tetrahydropyrazolo[3,4-b]thiazolo[4,5-d]azepin-2-amine] |
| < 0.1 µM | Fc1cnc(Nc2nc3c(s2)CCN(Cc2ncccn2)c2[nH]ncc2-3)nc1 [Compound 1-49, N-(5-Fluoropyrimidin-2-yl)-6-(pyrimidin-2-ylmethyl)-4,5,6,7-tetrahydropyrazolo[3,4-b]thiazolo[4,5-d]azepin-2-amine] |
